# Patent publication US20250082656A1, “DOSAGE REGIMENS FOR TREATMENT OF DENGUE INFECTION” (Atea Pharmaceuticals, Inc., priority 2022, published 2025)
# Where two headings read alike, the source gives them in different places.
# Legend:
# [1] = steady-state, human plasma; for AUCtau / Cmax: mean±SD; for Tmax: median (minimum-maximum)
# [2] = Plasma PK after single oral dose of AT-752, mice; settings: Mouse, single oral AT-752 420 mg/kg
# [3] = Pharmacokinetic study in SAD cohorts; type: in vivo, human; settings: for dose proportionality of plasma exposure: dose range 250 to 1500 mg; for Urine Elimination: following single oral administration of Compound 2 at 250 to 1500 mg; for AUCInf / Cmax / T1/2 / Tmax: human plasma; for CLR: human
# Procedure: (§1) Pharmacokinetic measurements for FIGS. 11, 12, 13, 14, and 15 were analyzed using LC-MS/MS according to the protocol described herein. Plasma samples were prepared for MS analysis by adding internal standards and extracting with 20 volumes chilled ACN. After vortex (800 rpm for 10 min) and centrifugation (4,000 rpm, 15 min, 4° C.), the supernatants (25 μL) were diluted with an equal volume of H2O, mixed and spun again. After adding internal standards, the PBMC samples (10^6 cells) were lyzed with 300 μL MeOH/H2O (70:30, v/v) and 40 mM dibutylammonium acetate (DBAA), mixed by vortex and centrifuged (12,000 rpm, 15 min, 4° C.). Aliquots of the supernatants (35 μL) were dried under nitrogen and reconstituted in H2O, then mixed and spun again. […] A binary nonlinear gradient with mobile phases A (0.1% formic acid in water) and B (0.1% formic acid in ACN) were used to elute samples at 0.8 mL/min, with a run time of 5 min. […] A binary nonlinear gradient with mobile phases A (0.001% NHr H2O, 0.18 mM DBAA in H2O) and B (10 mM N,N-dimethyl-hexylamine, 3 mM NH4OAc in ACN/H2O (50.50, v/v)) were used to elute samples at 0.5 mL/min, with a run time of 3 min. Standards in 50% MeOH were used for calibration. […] Internal standards (ISS) as described previously (Good et al., Preclinical evaluation of AT-527, a novel guanosine nucleotide prodrug with potent, pan-genotypic activity against hepatitis C virus. PLos One 15:e02271045) were used to correct for variations in recovery.
# (§2) Data analysis of the pharmacokinetic data generated according to Example 21 and presented in FIGS. 11, 12, 13, 14, and 15 was analyzed according to the procedure described herein. Plasma concentrations of Compound 1 (AT-281), Compound 3 (AT-551) and Compound 6 (AT-273) were subjected to non-compartmental pharmacokinetic analysis using Phoenix WinNonlin software (version 6.3 or above, Pharsight, Mountain View, CA). The linear/log trapezoidal rule was applied in obtaining the PK parameters.
# [4] = Plasma PK after single oral dose of AT-752, rats; type: in vivo, SD rats; settings: Rat, single oral AT-752 300 mg/kg, plasma
# Procedure: Male SD rats were administered 300 mg/kg Compound 2 (AT-752). Blood samples were collected up to 24 hrs. post dose, plasma separated and analyzed for Compound 1 (AT-281), Compound 3 (AT-551), and Compound 6 (AT-273) by LC-MS/MS. Data are express as mean+/−SD (n=3-5/time point). The x-axis is time post the dose measured in hours and the y-axis is the plasma concentration of the metabolites measured in nanomoles/mL). The experimental procedure is provided in Example 14.
# Male naïve SD rats (Beijing Vital River Laboratory Animals Co. Ltd., China) were administered a dose of AT-752 at 300 mg/kg in 40% PEG400, 10% solutol HS15, 50% 100 mM citrate buffer, pH 4.5 (v/v) by oral gavage. Blood samples (n=4) were collected at 1, 2, 4, 8, 12 and 24 h post-dose, plasma separated and stored at −70° C. […] For PBMCs, nine male naïve SD rats were administered a dose of Compound 2 (AT-752) (at a Compound 1 (AT-281) equivalent dose of 300 mg/kg) by oral gavage.
# as §1, §2
# [5] = Plasma PK after single oral dose of AT-752, monkeys; type: in vivo, cynomolgus monkeys; settings: Monkey, single oral AT-752 300 mg/kg, plasma
# Procedure: Male cynomolgus monkeys were administered 300 mg/kg Compound 2 (AT-752). Blood samples were collected up to 24 hrs. post dose, plasma separated and analyzed for Compound 1 (AT-281), Compound 3 (AT-551), and Compound 6 (AT-273) by LC-MS/MS. Data are express as mean+/−SD (n=3-5/time point). The x-axis is time post the dose measured in hours and the y-axis is the plasma concentration of the metabolites measured in nanomoles/mL). The experimental procedure is provided in Example 14.
# Male non-naïve cynomolgus monkeys (Hainan Jingang Laboratory Animal Co. Ltd., China), at least 2 kg body weight, were individually housed during the study in stainless steel mesh cages, provided ad libitum access to RO water, fed twice daily (except on the day of dosing when they were fed once) with ˜60 g Certified Monkey Diet each feed (Beijing Vital Keao Feed Co., Ltd., Beijing, China) and given daily treats of fresh fruit. They (n=5) were administered a dose of Compound 2 (AT-752) at 300 mg/kg in 40% PEG400, 10% solutol HS15, 50% 100 mM citrate buffer, pH 4.5 (v/v) by oral gavage, and blood samples (˜0.5 mL) were collected at 1, 2, 4, 8, 12 and 24 h post dose. Plasma was separated at each time point for pharmacokinetics, and stored at −70° C. […] Separately, three monkeys were given an oral dose of Compound 2 (AT-752) as powder in capsules at 60 mg/kg ([…] (AT-281) equivalent dose of 55 mg/kg), and blood samples collected at 12, 24 and 48 h post dose.
# as §1, §2
# [6] = single oral Compound 2 250 mg, fasting
# [7] = single oral Compound 2 500 mg, fasting
# [8] = single oral Compound 2 500 mg, fed
# [9] = single oral Compound 2 500 mg, fed (high-fat/high-calorie meal)
# [10] = single oral Compound 2 1000 mg, South/Southeast/East Asian origin
# [11] = single oral Compound 2 1000 mg, fasting
# [12] = single oral Compound 2 1000 mg, patients of South/Southeast/East Asian origin
# [13] = single oral Compound 2 1500 mg, fasting
smiles,measurement,setting,value
CNc1nc(N)nc2c1ncn2C1OC(COP(=O)(O)NC(C)C(=O)O)C(O)C1(C)F (stereo not drawn) [Compound 3],AUCtau,[1]; Compound 2 750 mg BID,1.33 ± 0.503 µg·h/mL
same,Cmax,[1]; Compound 2 750 mg BID,0.365 ± 0.159 µg/mL
same,Tmax,[1]; Compound 2 750 mg BID,1.0 (0.8-2.0) h
same,AUCtau,[1]; Compound 2 750 mg TID,0.944 ± 0.173 µg·h/mL
same,Cmax,[1]; Compound 2 750 mg TID,0.245 ± 0.03 µg/mL
same,Tmax,[1]; Compound 2 750 mg TID,1.5 (0.8-2.0) h
same,AUCtau,[1]; Compound 2 1000 mg QD,1.65 ± 0.498 µg·h/mL
same,Cmax,[1]; Compound 2 1000 mg QD,0.392 ± 0.143 µg/mL
same,Tmax,[1]; Compound 2 1000 mg QD,1.0 (0.8-2.0) h
same,AUC0-24 h,[2],58.7 ± 13.3 µM·h
same,Cmax,[2],45.1 ± 12 µM
same,Tmax,[2],0.5 ± 0.0 h
same,dose proportionality of plasma exposure,[3],greater than dose-proportional manner
same,Urine Elimination,[3],< 1%
same,AUCInf,[3]; [6],0.302 ± 0.071 µg·h/mL
same,Cmax,[3]; [6],0.089 ± 0.036 µg/mL
same,T1/2,[3]; [6],2.1 ± 0.3 h
same,Tmax,[3]; [6],1.0 (0.8-2.0) h
same,AUCInf,[3]; [7],0.898 ± 0.437 µg·h/mL
same,Cmax,[3]; [7],0.231 ± 0.155 µg/mL
same,T1/2,[3]; [7],2.4 ± 0.5 h
same,Tmax,[3]; [7],1.0 (0.8-8.0) h
same,AUCInf,[3]; [8],0.737 ± 0.289 µg·h/mL
same,T1/2,[3]; [8],2.3 ± 0.4 h
same,Tmax,[3]; [8],3.1 (3.0-4.0) h
same,Cmax,[3]; [9],0.154 ± 0.084 µg/mL
same,AUCInf,[3]; [10],3.32 ± 1.63 µg·h/mL
same,T1/2,[3]; [10],2.0 ± 0.3 h
same,Tmax,[3]; [10],0.9 (0.5-2.0) h
same,AUCInf,[3]; [11],2.33 ± 1.06 µg·h/mL
same,Cmax,[3]; [11],0.695 ± 0.468 µg/mL
same,T1/2,[3]; [11],2.2 ± 0.4 h
same,Tmax,[3]; [11],0.8 (0.5-2.0) h
same,Cmax,[3]; [12],0.895 ± 0.418 µg/mL
same,AUCInf,[3]; [13],4.1 ± 0.494 µg·h/mL
same,Cmax,[3]; [13],1.08 ± 0.217 µg/mL
same,T1/2,[3]; [13],3.2 ± 1.2 h
same,Tmax,[3]; [13],1.5 (0.8-2.0) h
same,CLR,[3]; [6],2.0 ± 0.3 L/h
same,CLR,[3]; [7],2.1 ± 0.6 L/h
same,CLR,[3]; [8],2.1 ± 0.4 L/h
same,CLR,[3]; [10],2.1 ± 0.6 L/h
same,CLR,[3]; [11],2.1 ± 0.6 L/h
same,CLR,[3]; [13],1.9 ± 0.4 L/h
same,AUC0-24 h,[4],56.5 µM·h
same,Cmax,[4],16.5 ± 10.8 µM
same,AUC0-24 h,[5],9.7 ± 2.2 µM·h
same,Cmax,[5],2 ± 0.8 µM
same,Tmax,[5],2.0 ± 0.0 h
CNc1nc(N)nc2c1ncn2[C@@H]1O[C@H](CO)[C@@H](O)[C@@]1(C)F [Compound 7],AUCtau,[1]; Compound 2 750 mg BID,7.96 ± 2.97 µg·h/mL
same,Cmax,[1]; Compound 2 750 mg BID,1.47 ± 0.404 µg/mL
same,Tmax,[1]; Compound 2 750 mg BID,1.5 (0.8-2.2) h
same,AUCtau,[1]; Compound 2 750 mg TID,22.3 ± 14.1 µg·h/mL
same,Cmax,[1]; Compound 2 750 mg TID,1.6 ± 0.64 µg/mL
same,Tmax,[1]; Compound 2 750 mg TID,1.5 (1.0-2.0) h
same,AUCtau,[1]; Compound 2 1000 mg QD,8.29 ± 2.29 µg·h/mL
same,Cmax,[1]; Compound 2 1000 mg QD,1.2 ± 0.284 µg/mL
same,Tmax,[1]; Compound 2 1000 mg QD,0.9 (0.8-2.0) h
same,dose proportionality of plasma exposure,[3],dose-proportional manner
same,Urine Elimination,[3],10.7-17.9%
same,AUCInf,[3]; [6],2.89 ± 0.68 µg·h/mL
same,Cmax,[3]; [6],0.446 ± 0.121 µg/mL
same,T1/2,[3]; [6],16.9 ± 8.6 h
same,Tmax,[3]; [6],2.1 (2.0-3.0) h
same,AUCInf,[3]; [7],5.48 ± 1.63 µg·h/mL
same,Cmax,[3]; [7],0.765 ± 0.307 µg/mL
same,T1/2,[3]; [7],15.1 ± 6.2 h
same,Tmax,[3]; [7],1.0 (0.8-4.0) h
same,AUCInf,[3]; [8],4.31 ± 1.4 µg·h/mL
same,T1/2,[3]; [8],11.2 ± 4.9 h
same,Tmax,[3]; [8],4.0 (3.0-6.1) h
same,Cmax,[3]; [9],0.488 ± 0.324 µg/mL
same,AUCInf,[3]; [10],14 ± 4.21 µg·h/mL
same,T1/2,[3]; [10],14.7 ± 10.1 h
same,Tmax,[3]; [10],1.5 (0.8-2.0) h
same,AUCInf,[3]; [11],10.3 ± 3.07 µg·h/mL
same,Cmax,[3]; [11],1.64 ± 0.474 µg/mL
same,T1/2,[3]; [11],12.4 ± 10.7 h
same,Tmax,[3]; [11],0.9 (0.8-3.0) h
same,Cmax,[3]; [12],2.01 ± 0.489 µg/mL
same,AUCInf,[3]; [13],16.7 ± 3.78 µg·h/mL
same,Cmax,[3]; [13],2.03 ± 0.6 µg/mL
same,T1/2,[3]; [13],12.5 ± 3.8 h
same,Tmax,[3]; [13],2.0 (1.0-2.0) h
same,CLR,[3]; [6],13.7 ± 1.6 L/h
same,CLR,[3]; [7],13.6 ± 5.4 L/h
same,CLR,[3]; [8],12.5 ± 2.8 L/h
same,CLR,[3]; [10],13.4 ± 2.5 L/h
same,CLR,[3]; [11],14.2 ± 3.8 L/h
same,CLR,[3]; [13],15.0 ± 2.4 L/h
